The text below walks through data of publication PMC11546610, “Molecular Modeling and In Vitro Functional Analysis of the RGS12 PDZ Domain Variant Associated with High-Penetrance Familial Bipolar Disorder” (International Journal of Molecular Sciences, 2024).

Residues, ends and D or L forms follow the SMILES beside them. *: point of attachment. Biotin = O=C1N[C@H]2[C@H](CS[C@H]2CCCCC(=O)*)N1; Ahx = NCCCCCC(=O)O

Test [1] has as its target T1, wildtype RGS12 PDZ domain GST-fusion protein (Homo sapiens, UniProt O14924).
T1 construct: human RGS12 PDZ domain (aa 18–101 of UniProt O14924); purchased GenScript; host or cells: E. coli
T1 sequence (O14924 18-101): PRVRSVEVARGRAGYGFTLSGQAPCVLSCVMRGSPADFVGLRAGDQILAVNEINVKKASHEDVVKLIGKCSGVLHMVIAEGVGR
Kind of test: SPR single-cycle kinetics (Alto), wildtype PDZ domain. The test is classed as binding. The settings on record: single trace in figure, 111 nM–9 μM analyte, PBS pH 7.3, 1:1 Langmuir with mass transport limitation, read-out: apparent on-rate (ka). On the procedure: (§1) Wildtype and R59Q-variant versions of the human RGS12 PDZ domain (aa 18–101 of UniProt O14924) were each cloned in frame with an N-terminal glutathione-S-transferase (GST) expression tag, expressed by E. coli fermentation, and purified by GST-affinity column and size-exclusion column chromatographies by GenScript. These recombinant GST-fusion proteins were stored at −80 °C in a storage buffer (150 mM NaCl, 10 mM Tris-HCl pH 7.6, 1 mM EDTA, 5 mM DTT, and 10% glycerol) prior to thawing and supplementation with 0.1% (final) Tween 20 for use in the SPR experiments.
Biotinylated peptides were separately immobilized onto streptavidin-coated gold nanosensor particles (Nicoya) in lane pairs. […] All on-board dilutions and experimental passages of analytes over immobilized peptides were performed with a running buffer consisting of phosphate-buffered saline (137 mM NaCl, 2.7 mM KCl, 4.3 mM disodium phosphate, 1.4 mM monopotassium phosphate; and pH 7.3, from Teknova) supplemented with 0.1% Tween 20 (Nicoya), […] (w/v) bovine serum albumin (BSA; Nicoya), and 3% glycerol (the latter to reduce bulk-shift readings when transitioning from running buffer to protein analyte injections). […] Observed maximal response units (Rmax) and calculated KD values for each single-stack injection were plotted using GraphPad Prism 10.

For test [2], the target named is T2, R59Q-variant RGS12 PDZ domain GST-fusion protein (Homo sapiens, UniProt O14924, R59Q).
T2 construct: human RGS12 PDZ domain (aa 18–101 of UniProt O14924); purchased GenScript; host or cells: E. coli
T2 sequence (O14924 18-101 R59Q): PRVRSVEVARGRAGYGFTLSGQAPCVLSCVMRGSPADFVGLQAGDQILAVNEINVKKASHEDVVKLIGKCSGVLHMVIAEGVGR
In words: SPR single-cycle kinetics (Alto), R59Q-variant PDZ domain. The class given is binding. The note with it: for KD of R59Q variant relative to wildtype (fold less than the wildtype) / maximal binding signal (Rmax), R59Q in comparison to wildtype: R59Q vs wildtype, peptide biosensors, N = 2-4; for kon: R59Q, single trace in figure, 111 nM–9 μM analyte, PBS pH 7.3, 1:1 Langmuir with mass transport limitation, read-out: apparent on-rate (ka). Here is the method: as §1
Biotinylated peptides were separately immobilized onto streptavidin-coated gold nanosensor particles (Nicoya) in lane pairs. The reference sensor of the lane held either immobilized mNotch1 or rβ2AR peptide as an established negative control surface, and the test sensor held one of the candidate PDZ domain-interacting peptides. All on-board dilutions and experimental passages of analytes over immobilized peptides were performed with a running buffer consisting of phosphate-buffered saline (137 mM NaCl, 2.7 mM KCl, 4.3 mM disodium phosphate, 1.4 mM monopotassium phosphate; and pH 7.3, from Teknova) supplemented with 0.1% Tween 20 (Nicoya), […] (w/v) bovine serum albumin (BSA; Nicoya), and 3% glycerol (the latter to reduce bulk-shift readings when transitioning from running buffer to protein analyte injections). […] Each sensor was regenerated between each single-stack passage by the injection of a surface regeneration buffer (10 mM NaOH). Non-specific binding to the paired, negative control peptide-bound streptavidin surface was subtracted from each single-stack curve and then binding parameters of the on-rate (ka), off-rate (kd), and dissociation constant (KD) were calculated using the 1:1 Langmuir kinetics model with mass transport limitation (Alto software version 2.3.1; Nicoya). Observed maximal response units (Rmax) and calculated KD values for each single-stack injection were plotted using GraphPad Prism 10.

Test [3] concerns RGS12 PDZ domain protein fusions. The settings on record: yeast two-hybrid, far-western blotting, SPR; ref [19]; cited from earlier work. The source says: In our initial report identifying the PDZ domain within RGS12, we characterized its binding selectivity as being directed toward C-terminal (A/S)-T-X-(L/V) peptide motifs. […] Our subsequent report, characterizing RGS12 as a neuronal Ras/MAPK ...

In test [4] the target is T3, CXCR2 C-terminal peptide, biotin-Ahx-VGSSSGHTSTTL-carboxylic acid (SMILES …).
T3 construct: C-terminus of CXCR2; also called CXCR2 C-tail peptide TSTTL-COOH; CXCR2 TSTTL-COOH biosensor; source: synthetic peptide (GenScript)
T3 peptide: {Biotin-Ahx}-VGSSSGHTSTTL-OH
In words: SPR; Alto 8 × 2 digital microfluidics SPR (Nicoya); biotinylated peptides immobilised on streptavidin-coated gold nanosensors; GST-RGS12 PDZ fusion protein as analyte, single-cycle kinetics, 111 nM-9 μM; PBS pH 7.3 with 0.1% Tween 20, BSA, 3% glycerol; mNotch1 or rβ2AR reference sensor subtracted; 1:1 Langmuir model with mass transport limitation; apparent rates, estimated KD. The settings on record: both partners purified.

Test [5] addresses T4, MEK2 C-terminal peptide, biotin-Ahx-RTLRLKQPSTPTRTAV-carboxylic acid (rat, SMILES …).
T4 construct: C-terminus of MEK2; also called MEK2 C-tail; TRTAV-COOH of MEK2; source: synthetic peptide (GenScript)
T4 peptide: {Biotin-Ahx}-RTLRLKQPSTPTRTAV-OH
The description is as above. The note with it: both partners purified.

Test [6] has as its target T5, SAPAP3 C-terminal peptide, biotin-Ahx-IYIPEAQTRL-carboxylic acid (human, SMILES …).
T5 construct: C-terminus of SAPAP3; the last ten residues of the human 20-mer aa 960-979; also called SAPAP3 C-tail peptide AQTRL-COOH; source: synthetic peptide (GenScript)
T5 peptide: {Biotin-Ahx}-IYIPEAQTRL-OH
The test is described as above. The settings on record: both partners purified.

Turning to `CC[C@H](C)[C@H](NC(=O)CCCCCNC(=O)CCCC[C@@H]1SC[C@@H]2NC(=O)N[C@@H]21)C(=O)N[C@@H](Cc1ccc(O)cc1)C(=O)N[C@H](C(=O)N1CCC[C@H]1C(=O)N[C@@H](CCC(=O)O)C(=O)N[C@@H](C)C(=O)N[C@@H](CCC(N)=O)C(=O)N[C@H](C(=O)N[C@@H](CCCNC(=N)N)C(=O)N[C@@H](CC(C)C)C(=O)O)[C@@H](C)O)[C@@H](C)CC` ({Biotin-Ahx}-IYIPEAQTRL-OH), the kon in test [1] was found to be 1490 M⁻¹ s⁻¹. Moreover, in test [2], the “KD of R59Q variant relative to wildtype (fold less than the wildtype)” value is “at least 2 fold”; the “maximal binding signal (Rmax), R59Q in comparison to wildtype” value is “less maximal binding signal (Rmax)”; the kon is 15400 M⁻¹ s⁻¹.
Taken in the same sequence, the figures for `CC(C)C[C@H](NC(=O)[C@@H](NC(=O)[C@@H](NC(=O)[C@H](CO)NC(=O)[C@@H](NC(=O)[C@H](Cc1c[nH]cn1)NC(=O)CNC(=O)[C@H](CO)NC(=O)[C@H](CO)NC(=O)[C@H](CO)NC(=O)CNC(=O)[C@@H](NC(=O)CCCCCNC(=O)CCCC[C@@H]1SC[C@@H]2NC(=O)N[C@@H]21)C(C)C)[C@@H](C)O)[C@@H](C)O)[C@@H](C)O)C(=O)O` ({Biotin-Ahx}-VGSSSGHTSTTL-OH) were 1210 M⁻¹ s⁻¹, “at least 2 fold”, “less maximal binding signal (Rmax)” and 1500 M⁻¹ s⁻¹.
For “TSTTL-COOH [CXCR2 C-tail pentamer used in docking and MD]”, the “binding to RGS12 PDZ domain fusions (in words)” value in test [3] was “specific binding was observed”.

B1: R59Q-variant human RGS12 PDZ domain GST-fusion protein (domain or fragment, UniProt O14924 18-101, looked up)
chain: PRVRSVEVARGRAGYGFTLSGQAPCVLSCVMRGSPADFVGLQAGDQILAVNEINVKKASHEDVVKLIGKCSGVLHMVIAEGVGR
notes: human RGS12 PDZ domain, aa 18-101 of UniProt O14924, with the bipolar disorder-associated missense variation R59Q; R59Q is a variant found in families with bipolar disorder (Forstner et al.); also called R59Q-variant PDZ domain fusion protein; not shown: GST, N-terminal, kept
As for B1, the “fold change of KD against the wild type” value in test [4], in test [5] and in test [6] was not below 2 fold throughout.
